This passage reports TGI results from PubChem BioAssay (NCI).

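Following 48 hours of exposure in 96-well plates, responses at five concentrations were used to interpolate endpoints linearly. The concentration for full growth arrest is given as TGI.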 Some results are limits rather than exact numbers.

Among the test systems are MDA-N; SN12K1 renal; SNB-78 CNS; HOP-18 NSCLC; LXFL 529 NSCLC; RXF-631 renal; P388 leukemia; DMS 114 small cell lung; P388/ADR leukemia; XF 498 CNS.
Holding throughout (experiment): NCI tumour cell line growth inhibition, 48 h

The compound `NS(=O)(=O)c1ccc(C(=O)O)cc1` had a TGI with MDA-N of over 100 µM.
As to `ClCCN(CC#CCCCC#CCN(CCCl)CCCl)CCCl`, the TGI in the assay on SN12K1 renal turned out to be 25.3 µM; in the assay on SNB-78 CNS, 57.5 µM; in the assay on HOP-18 NSCLC, 44.5 µM; with LXFL 529 NSCLC it was 28.3 µM; in the assay on RXF-631 renal it was 23.8 µM; in the assay with P388 leukemia, 9.73 µM. Moreover, the results for the TGI in the assay with DMS 114 small cell lung and in the assay on P388/ADR leukemia were 15.8 µM and 9.09 µM, respectively.
For `CC1(C)CCc2cc3c(cc2O1)OC(C)(C)CC3=O`, the TGI in the assay on LXFL 529 NSCLC, in the assay on XF 498 CNS and in the assay with DMS 114 small cell lung was over 100 µM in each case.
`Cc1c2ccccc2c(CSC(=N)N)c2ccccc12`: in the assay with MDA-N, the TGI was determined as 0.457 µM.
Same read-out and setting: to `N=C(N)SC(c1ccccc1)c1ccccc1` belongs 26.5 µM.
Regarding `CC(C)(c1ccccc1)c1ccc(Oc2ccc3c(c2)-c2nc-3nc3[nH]c(nc4nc(nc5[nH]c(n2)c2ccc(Oc6ccc(C(C)(C)c7ccccc7)cc6)cc52)-c2cc(Oc5ccc(C(C)(C)c6ccccc6)cc5)ccc2-4)c2ccc(Oc4ccc(C(C)(C)c5ccccc5)cc4)cc32)cc1`, the TGI in the assay with SNB-78 CNS, in the assay on LXFL 529 NSCLC, in the assay with RXF-631 renal and with XF 498 CNS was over 100 µM in each case.
Compound `CC(C)C(C)C(O)C(O)C(C)C1CCC2C3COC(=O)C4CC(O)C(O)CC4(C)C3CCC12C` (stereo not drawn) displayed a TGI in the assay with MDA-N of over 100 µM.
As for `CC1OC1P(=O)(O)O` (stereo not drawn), the TGI with MDA-N is over 100 µM.
With `Cn1ncc2c(=O)[nH]c(-c3ccccc3)nc21`, the TGI in the assay on SNB-78 CNS, in the assay with RXF-631 renal, with XF 498 CNS and in the assay on DMS 114 small cell lung was over 100 µM in each case.
In the case of `CCCCC1CCCCCCc2[nH]c(/C=C3\N=C(c4ccc[nH]4)C=C3OC)cc21` (stereo not drawn), the TGI in the assay on MDA-N was 1.35 µM.
As for `CC1(C)CCCC2(C)C3=C(CCC12)C(=O)OC3` (stereo not drawn), the TGI with MDA-N was over 100 µM.
For the compound `COc1ccc(C(=O)NNC(=O)c2nsc3ccccc23)cc1`, the TGI in the assay with SNB-78 CNS, in the assay on LXFL 529 NSCLC and with DMS 114 small cell lung was over 100 µM throughout.
With `CCc1cc(C)cc2[n+]1CC=C2C`, the TGI with SNB-78 CNS is over 100 µM; in the assay with HOP-18 NSCLC, 9.88 µM; in the assay on LXFL 529 NSCLC, over 100 µM.
`COC(=O)C12OCC34C(CC5C(C)C6=CC(=O)OC6=CC5(C)C3C(O)C1O)OC(=O)C(OC(C)=O)C24` (stereo not drawn): the TGI with SNB-78 CNS was determined as 48.7 µM; in the assay with HOP-18 NSCLC, 27.9 µM; with LXFL 529 NSCLC, 31.5 µM; in the assay with RXF-631 renal, 33.9 µM; in the assay with XF 498 CNS, 25.4 µM; in the assay on DMS 114 small cell lung, 35.4 µM.
`CCCCCCCCCCCCCCC(C(=O)[O-])[n+]1ccccc1` (stereo not drawn) registered a TGI in the assay with MDA-N of over 100 µM.
With `NCc1ccc(O)c(O)c1O`, the TGI with SNB-78 CNS is over 100 µM; with HOP-18 NSCLC, over 100 µM; in the assay on LXFL 529 NSCLC it was 30.6 µM; in the assay on XF 498 CNS, 56.4 µM; in the assay with DMS 114 small cell lung, 42.8 µM.
For the compound `Cc1nc2ccccc2c(=O)n1Nc1ccc(C(=O)O)cc1`, the TGI in the assay with SN12K1 renal, in the assay with SNB-78 CNS, in the assay with HOP-18 NSCLC, with P388 leukemia, in the assay on XF 498 CNS and with DMS 114 small cell lung was over 100 µM each time. The same compound had a TGI with P388/ADR leukemia of over 100 µM.
`O=C1CC(c2ccccc2)NCCCCN2CC(CN1)C(C(O)c1ccccc1)C2=O` (stereo not drawn) displayed a TGI with MDA-N of over 100 µM.
On the same count and under the same terms, to `Nc1ccc([As](=O)(O)O)cc1` belongs over 100 µM.
